This note sets out measurements from patent US5849915A (priority 1996, dated 1998).

SMILES strings stand for the structures.

Details of test [1]: species or system mice. The note with it: mouse, in vivo.
On the set-up of test [2]: species or system mice. Conditions: mouse, in vivo, sc.
On the set-up of test [3]: species or system mice. Conditions: mouse, in vivo, sc, 30 min.

As to `CO[C@]12CC[C@@]3(C[C@@H]1[C@](C)(O)C(C)(C)C)[C@H]1Cc4ccc(O)c5c4[C@@]3(CCN1CC1CC1)[C@H]2O5` [Buprenorphine], the “anti-Mor effect (in words)” value in test [1] is “antagonised Mor analgesia”. The “AD50 (95% confidence limits), dosage required to inhibit Mor analgesia by 50%” value in test [1] (sc) was 1.33 mg/kg. In test [2], the “ED50 (95% confidence limits) in the acetic acid writhing test” value is 0.00693 mg/kg.
Take `CN1CC[C@]23c4c5ccc(O)c4O[C@H]2[C@@H](O)C=C[C@H]3[C@H]1C5` [Morphine]: the “ED50 (95% confidence limits) in the hot plate” value in test [3] is listed as 5.81 mg/kg.
